Test results published in patent publication US20060293264A1, “STAT3 decoy oligonucleotides and uses therefor” (priority 2004, published 2006).
Entries after “also recorded” stand apart in the source; their conditions may differ.

Columns and labels:
[1] = system: SCCHN xenografts (1483 cells); assay: In vivo tumor xenograft study, tumor volumes; parameters: species or system athymic nude mice; conditions: 25 μg intratumoral daily, 1483 xenografts, nude mice; p=0.002
Method: Statistics. In vivo comparisons of STAT3, cyclin D1 and Bcl-xL expression levels were conducted with the Wilcoxon test for comparing two groups or the Kruskal-Wallis test for comparing three groups. All tests were exact and two-tailed. Studies of the joint effect of STAT3 decoy and cisplatin upon in vitro apoptosis were evaluated with a two way factorial design. Additive and synergistic effects of the STAT3 decoy and cisplatin were tested with a permutation test. In vivo tumor xenograft experiments were analyzed with mixed linear models that assumed animals were random effects having an unstructured within-animal covariance matrix. Data were log transformed and examined for the interaction between treatment group and day of observation beginning with day 10 after tumor inoculation, differences between treatment groups were estimated and tested with the pooled estimated standard error. Multiple comparisons were controlled by simulating observations from a multivariate t distribution with the same covariance matrix as the observed data and adjusting p values accordingly.
(§1) In vivo tumor xenograft studies. Female athymic nude mice nu/nu (4-6 weeks old; 20±2 g; Harlan-Sprague-Dawley) were implanted with 1×10^6 1483 cells into the right and left flank with a 26-gauge needle/1 ml tuberculin syringe, resulting in two tumors per mouse. […]

STAT3 = target: T1, STAT3 (Homo sapiens, UniProt P40763); assay: STAT3 activation by EMSA in harvested xenografts; assay type: in vivo; conditions: xenografts harvested 4 hrs after last treatment; p=0.02
T1 construct: Whole cell extracts were prepared and EMSAs performed on 4% native polyacrylamide gels; endogenous in cells; host or cells: whole cell extracts
Method: Electrophoretic Mobility Shift Assay (EMSA). Whole cell extracts were prepared and EMSAs performed on 4% native polyacrylamide gels as described (Xi, S., et al. J Biol Chem, 278: 31574-31583, 2003 and Wong, P., etal. Mol Cell Biol, 14. 914-922, 1994). STAT3 activation was evaluated by using binding reactions with 20 μg of extracted protein, and radiolabeled high-affinity serum inducible element (hSIE) duplex oligonucleotide (Wagner et al., EMBO J. 9(13):4477-4484 (1990)). Quantification of the STAT3 signal was performed by scanning the SIF-A band using a Molecular Dynamics Personal Densitometer SI and IMAGEQUANT software. […] For supershift experiments, extracts were preincubated with STAT3 polyclonal antibody (C-20, Santa Cruz Biotechnology). Gel shift bands were quantified by densitometry and the Molecular Analyst software (AlphaDigidoc 1000, Alpha-Innotech) with normalization of each band to the positive control lysate run on that gel as described previously for STAT3 activation determinations (Grandis, J. R. et al. Proc Natl Acad Sci USA, 97: 4227-4232., 2000).
as §1

GAS-responsive element = assay: pGAS-Luc reporter gene assay in UM-22B SCCHN cells; assay type: cell-based; conditions: UM-22B pGAS-Luc, 2 μg transfected, 24 hrs, IFN-γ stimulation
Method: FIG. 9 depicts the inhibition of reporter gene expression from GAS-responsive element in SCCHN cells. An SCCHN cell line, UM-22B, was used to generate a stable cell line expressing a pGAS-Luc reporter gene (pGAS-Luc plasmid carrying 4 repeats of GAS sequence: [NT] ID NO: 31), was obtained from Stratagene, Catalog number: 219091-51). The cells were transfected with 2 μg of the STAT3 decoy or the control mutant decoy. At 24 hrs after transfection, luciferase activity was measured and normalized to the total amount of protein.

T1 sequence (P40763 2-770 limits assumed): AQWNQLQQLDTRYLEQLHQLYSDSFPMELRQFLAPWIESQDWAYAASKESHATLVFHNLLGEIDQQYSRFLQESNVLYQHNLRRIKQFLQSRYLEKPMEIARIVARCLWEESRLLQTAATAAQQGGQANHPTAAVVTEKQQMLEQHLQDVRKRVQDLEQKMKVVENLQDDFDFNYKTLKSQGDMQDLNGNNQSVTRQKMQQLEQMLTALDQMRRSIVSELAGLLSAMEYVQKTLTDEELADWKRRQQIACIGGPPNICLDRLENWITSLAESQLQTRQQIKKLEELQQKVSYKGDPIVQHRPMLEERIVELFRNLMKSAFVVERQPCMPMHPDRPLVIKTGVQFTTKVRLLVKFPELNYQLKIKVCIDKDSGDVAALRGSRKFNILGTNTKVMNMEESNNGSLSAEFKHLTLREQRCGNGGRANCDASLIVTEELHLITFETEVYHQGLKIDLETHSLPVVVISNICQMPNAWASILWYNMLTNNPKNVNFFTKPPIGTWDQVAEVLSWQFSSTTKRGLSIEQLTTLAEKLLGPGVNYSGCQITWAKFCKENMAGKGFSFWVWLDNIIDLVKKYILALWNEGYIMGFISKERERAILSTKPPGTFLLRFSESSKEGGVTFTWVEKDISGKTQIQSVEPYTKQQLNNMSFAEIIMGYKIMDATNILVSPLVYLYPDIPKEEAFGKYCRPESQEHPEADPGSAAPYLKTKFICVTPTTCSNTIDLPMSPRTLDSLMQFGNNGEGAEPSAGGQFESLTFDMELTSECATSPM

Substance: STAT3 decoy (sense CATTTCCCGTAAATC; antisense GATTTACGGGAAATG; phosphorothioate modified, further chemistry not given here; listed as Homo sapiens)
- tumor growth (tumor volumes) compared with mutant control decoy [1]: significantly decreased; also recorded: growth inhibited
- STAT3 activation levels compared with mutant control decoy (STAT3): decreased
- reporter gene expression from a GAS-responsive element (STAT1 reporter activity) (GAS-responsive element): inhibit
